The source made the active and inactive calls.
System: not listed separately
Test: Trypanosoma cruzi growth suppression in host cells – NIH3T3 host cells, beta-gal luminescence, confirmation (AID 2044);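 further: intracellular parasites grown in NIH/3T3 mouse fibroblasts as host cells; luminescent beta-galactosidase reporter signal from transgenic T. cruzi replicating inside host cells; inhibitors lower the luminescence signal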
Format: functional, cell-based
Conditions: not given

| SMILES | EC50 |
| --- | --- |
| CN1CCN(S(=O)(=O)c2cnccc2N2CCN(c3cccc(Cl)c3)CC2)CC1 | 1 µM (active) |
| CCOc1ccc2nc(NC(=O)C3CCN(c4cnccn4)CC3)sc2c1 | 2.48 µM (active) |
| CC(C)CCNC(=O)C(c1cccnc1)N(Cc1ccccc1)C(=O)Cn1nnc2ccccc21 (centres undefined) | 0.959 µM (active) |
| COC(=O)C1=CN(c2cc(C)cc(C)c2)C=C(C(=O)OC)C1c1cccc(F)c1 | 3.09 µM (active) |
| CCOC(=O)c1c(NC(=O)COC(=O)c2ccccc2NC)sc(C(=O)N(C)C)c1C | 0.75 µM (active) |
| CCN(CC1CCCN(CCc2cccc(OC)c2)C1)C(=O)c1ccc(COC)o1 (centres undefined) | 0.445 µM (active) |
| CCCC(C)C(=O)Nc1ncc(S(=O)(=O)c2ccc([N+](=O)[O-])cc2)s1 (centres undefined) | 2.25 µM (active) |
| Oc1ccc(-c2nccc(-c3ccc(Cl)cc3Cl)n2)cc1 | 1.62 µM (active) |
| Cc1ccc(C)c(Oc2ccc(S(=O)(=O)N3CCN(C)CC3)cn2)c1 | 1.14 µM (active) |
| O=C(c1cc(COc2ccc(F)cc2Cl)on1)N(Cc1ccncc1)CC1CCCO1 (centres undefined) | 0.956 µM (active) |
| COc1cccc(N2C(C(C)=O)=NN(c3ccccc3)C2c2ccc(N3CCOCC3)cc2)c1 (centres undefined) | 1.49 µM (active) |
| O=C(Nc1ccc(F)cc1)NC1CCN(Cc2ccccc2)CC1 | 0.476 µM (active) |

Target: T1, Cytochrome P450 1A2 (Homo sapiens, UniProt P05177);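 further: PubChem cytochrome P450 panel assay, CYP1A2 panel member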
T1 sequence (P05177 whole entry): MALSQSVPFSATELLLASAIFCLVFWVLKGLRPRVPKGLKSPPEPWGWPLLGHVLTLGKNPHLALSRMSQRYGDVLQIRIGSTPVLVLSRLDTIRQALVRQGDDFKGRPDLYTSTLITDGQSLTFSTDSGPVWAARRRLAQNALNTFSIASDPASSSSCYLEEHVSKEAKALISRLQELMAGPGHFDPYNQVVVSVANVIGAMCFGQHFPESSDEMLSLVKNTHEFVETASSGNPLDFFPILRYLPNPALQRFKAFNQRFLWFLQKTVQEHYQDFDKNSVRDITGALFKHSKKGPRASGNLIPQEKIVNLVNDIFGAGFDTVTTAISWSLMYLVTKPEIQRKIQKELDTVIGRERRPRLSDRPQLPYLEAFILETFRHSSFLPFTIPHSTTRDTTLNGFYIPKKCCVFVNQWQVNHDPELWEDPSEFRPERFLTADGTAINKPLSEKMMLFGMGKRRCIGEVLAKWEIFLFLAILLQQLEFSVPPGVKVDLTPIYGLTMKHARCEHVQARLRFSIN
Conditions: not given

| SMILES | AC50 |
| --- | --- |
| C[C@@H](C(=O)NCCc1c[nH]c2ccccc12)[C@H]1C[C@]1(C)[C@H](NC(=O)OCc1ccccc1)c1ccccc1 | 15.8 µM (inconclusive) |
| Cc1ccccc1C(=O)NC(NCc1ccco1)C(Cl)(Cl)Cl (centres undefined) | 14.1 µM (inconclusive) |
| COC(=O)[C@@]1(Cc2ccc(F)cc2)[C@H]2c3cc(C(=O)N(C)C)n(Cc4ccc(S(C)(=O)=O)cc4)c3C[C@H]2CN1C(=O)c1ccccc1 | 25.1 µM (inconclusive) |
| COc1cc(OC)nc(NC(C)=O)n1 | 28.2 µM (inconclusive) |
| N[C@@H](Cn1cc(I)c(=O)n(Cc2ccc(C(=O)O)cc2)c1=O)C(=O)O | 31.6 µM (inconclusive) |
| O=C(CC(=O)N/N=C\c1c(Cl)cccc1Cl)NCc1ccccc1 | 14.1 µM (inconclusive) |
| CCn1c(=O)[nH]c2ccccc21 | 31.6 µM (inconclusive) |
| COc1ccc(-n2c(=O)c(-c3ccc(F)c(F)c3)nc3cncnc32)cc1 | 2.51 µM (inconclusive) |
| COc1ccc(-c2nc3cnc(N4CCOCC4)nc3n(-c3ccc(OC)cc3)c2=O)cc1 | 10 µM (inconclusive) |
| Cc1noc(NC(=O)Nc2ccccc2F)c1C#N | 0.794 µM (inconclusive) |
| COc1ccc(C(=O)NCS(=O)(=O)c2ccc(C)cc2)cc1 | 15.8 µM (inconclusive) |

System: not listed separately
Test: NIH3T3 cell viability loss – ATP luminescence, mouse fibroblasts, counter-screen, dose response (AID 2010);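 further: cells exposed to compound for about 90 hours before reading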
Format: functional, cell-based
Conditions: not given

| SMILES | EC50 |
| --- | --- |
| CN1CCN(S(=O)(=O)c2cnccc2N2CCN(c3cccc(Cl)c3)CC2)CC1 | > 60 µM (inconclusive) |
| CCOc1ccc2nc(NC(=O)C3CCN(c4cnccn4)CC3)sc2c1 | > 60 µM (not active) |
| CC(C)CCNC(=O)C(c1cccnc1)N(Cc1ccccc1)C(=O)Cn1nnc2ccccc21 (centres undefined) | > 30 µM (not active) |
| COC(=O)C1=CN(c2cc(C)cc(C)c2)C=C(C(=O)OC)C1c1cccc(F)c1 | > 60 µM (not active) |
| CCOC(=O)c1c(NC(=O)COC(=O)c2ccccc2NC)sc(C(=O)N(C)C)c1C | > 60 µM (not active) |
| CCN(CC1CCCN(CCc2cccc(OC)c2)C1)C(=O)c1ccc(COC)o1 (centres undefined) | 30.9 µM (active) |
| CCCC(C)C(=O)Nc1ncc(S(=O)(=O)c2ccc([N+](=O)[O-])cc2)s1 (centres undefined) | > 60 µM (not active) |
| Oc1ccc(-c2nccc(-c3ccc(Cl)cc3Cl)n2)cc1 | > 60 µM (not active) |
| Cc1ccc(C)c(Oc2ccc(S(=O)(=O)N3CCN(C)CC3)cn2)c1 | > 60 µM (not active) |
| O=C(c1cc(COc2ccc(F)cc2Cl)on1)N(Cc1ccncc1)CC1CCCO1 (centres undefined) | > 60 µM (not active) |
| COc1cccc(N2C(C(C)=O)=NN(c3ccccc3)C2c2ccc(N3CCOCC3)cc2)c1 (centres undefined) | > 30 µM (not active) |
| O=C(Nc1ccc(F)cc1)NC1CCN(Cc2ccccc2)CC1 | > 60 µM (not active) |

Target: Cytochrome P450 3A4 (Homo sapiens, UniProt P08684);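 further: CYP3A4 tested as one member of a cytochrome P450 panel screen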
Sequence (P08684 whole entry): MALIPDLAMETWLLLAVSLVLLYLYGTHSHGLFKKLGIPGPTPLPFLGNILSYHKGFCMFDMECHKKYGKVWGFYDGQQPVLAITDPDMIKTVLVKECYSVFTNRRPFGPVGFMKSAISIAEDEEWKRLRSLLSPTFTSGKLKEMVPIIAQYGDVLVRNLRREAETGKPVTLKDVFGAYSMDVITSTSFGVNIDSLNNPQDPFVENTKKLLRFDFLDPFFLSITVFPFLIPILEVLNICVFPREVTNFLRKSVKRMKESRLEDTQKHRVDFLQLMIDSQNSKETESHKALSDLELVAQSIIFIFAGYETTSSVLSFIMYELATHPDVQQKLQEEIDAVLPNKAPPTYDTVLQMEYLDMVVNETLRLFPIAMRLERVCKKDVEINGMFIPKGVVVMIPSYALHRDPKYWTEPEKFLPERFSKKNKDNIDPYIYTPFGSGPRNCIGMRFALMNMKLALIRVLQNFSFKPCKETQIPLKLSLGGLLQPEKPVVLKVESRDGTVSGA
Conditions: not given

| SMILES | AC50 |
| --- | --- |
| CCC(C(=O)N1CCOCC1)n1c(C(=O)OC)cc2occc21 (centres undefined) | 14.1 µM (inconclusive) |
| O=C(CSc1ncnc2c1cnn2CCc1ccccc1)Nc1ccc(F)cc1 | 1.41 µM (inconclusive) |
| Cc1ccccc1C(=O)NC(NCc1ccco1)C(Cl)(Cl)Cl (centres undefined) | 25.1 µM (inconclusive) |
| CO[C@@H]1COC(=O)[C@H]2CCCN2C(=O)[C@@H](C)COC(=O)[C@H](COCc2ccccc2)NC(=O)C/C=C\[C@H]1C | 3.98 µM (inconclusive) |
| CCOc1c(OC(C)=O)ccc(/C=C2\N=C(SCC)SC2=O)c1[N+](=O)[O-] | 39.8 µM (inconclusive) |
| CCN(C(S)=Nc1ccccc1F)C1CCCCC1 | 14.1 µM (inconclusive) |
| O=C(CC(=O)N/N=C\c1c(Cl)cccc1Cl)NCc1ccccc1 | 12.6 µM (inconclusive) |
| CC(C)c1ccccc1[S+]([O-])c1ccccc1C(C)(C)O (centres undefined) | 3.98 µM (inconclusive) |
| N#Cc1cccc(-c2nc3cnc(N4CCOCC4)nc3n(C3CC3)c2=O)c1 | 39.8 µM (inconclusive) |
| Cc1nnc(O)nc1NCc1ccccc1Cl | 39.8 µM (inconclusive) |
| CCN(CC)C(=O)CSc1nc(O)cc(=O)n1CC | 14.1 µM (inconclusive) |
| COc1ccc(-n2c(=O)c(-c3ccc(F)c(F)c3)nc3cncnc32)cc1 | 12.6 µM (inconclusive) |
| C[C@@H](c1ccccc1)N1C(=O)[C@H]2[C@H]3[C@H](O)[C@H](O)C/C(=N/OCc4ccccc4)[C@@H]3CC[C@@H]2C1=O | 5.01 µM (inconclusive) |
| COc1ccc(COC(=O)N/N=C2/C[C@@H](O)[C@@H](O)[C@@H]3[C@@H]4C(=O)N([C@@H](C)c5ccccc5)C(=O)[C@H]4CC[C@H]23)cc1 | 3.98 µM (inconclusive) |
| CCOC(=O)c1ccc(Nc2nc(C(=O)OCC)nc3ccccc23)cc1 | 35.5 µM (inconclusive) |
| CN(C)C(=O)CSC1c2ccccc2C(=O)N1c1ccccc1 (centres undefined) | 15.8 µM (inconclusive) |
| c1ccc(NN(Cc2cnccn2)c2ccccc2)cc1 | 1 µM (inconclusive) |
| CCCC[C@]1(C2CCCC2)Cc2cc(OCC(=O)O)c(Cl)c(Cl)c2C1=O | 10 µM (inconclusive) |
| COC(=O)[C@@H]1CC[C@H](C)[C@@H](c2ccc(C)cc2)N1C(=O)c1ccc(/C=N\OC[C@@H]2O[C@H](c3ccccc3)C=C[C@@H]2Oc2ccc(OC)cc2)cc1 | 3.16 µM (inconclusive) |
| Cc1ccccc1NC(=S)NC(=O)c1cc(-c2ccccc2)nc2ccccc12 | 3.16 µM (inconclusive) |
| COc1cccc(C2=NOC(C(=O)NCc3ccccc3)C2)c1 (centres undefined) | 25.1 µM (inconclusive) |
| COCCn1c(=O)c(-c2cc(F)cc(F)c2)nc2cnc(N3CCNCC3)nc21 | 20 µM (inconclusive) |
| CCCC1(C(=O)OC)C=C2C(=C(C(C)C)C(=O)C2C)CN1 (centres undefined) | 12.6 µM (inconclusive) |
| COC(=O)[C@@H]1CC[C@H](C)[C@@H](c2ccc(C)cc2)N1C(=O)c1ccc(/C=N\OC[C@@H](O)[C@H]2O[C@H]3OC(C)(C)O[C@H]3[C@@H]2O)cc1 | 6.31 µM (inconclusive) |

Target: Cytochrome P450 2C9 (Homo sapiens, UniProt P11712)
Sequence (P11712 whole entry): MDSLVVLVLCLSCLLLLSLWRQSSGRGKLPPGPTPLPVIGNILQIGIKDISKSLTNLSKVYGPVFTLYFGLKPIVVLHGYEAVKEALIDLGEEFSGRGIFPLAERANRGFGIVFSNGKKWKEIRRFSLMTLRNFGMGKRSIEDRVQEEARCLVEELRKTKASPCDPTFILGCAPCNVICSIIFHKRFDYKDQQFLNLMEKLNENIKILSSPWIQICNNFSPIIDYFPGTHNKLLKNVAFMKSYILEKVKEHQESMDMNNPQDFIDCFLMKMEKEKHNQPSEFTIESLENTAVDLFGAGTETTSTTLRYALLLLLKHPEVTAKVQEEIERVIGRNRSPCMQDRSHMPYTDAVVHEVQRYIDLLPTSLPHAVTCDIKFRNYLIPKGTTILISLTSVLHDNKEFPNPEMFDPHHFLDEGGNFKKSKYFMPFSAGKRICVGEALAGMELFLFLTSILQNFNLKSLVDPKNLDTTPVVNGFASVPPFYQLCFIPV
Conditions: not given

| SMILES | AC50 |
| --- | --- |
| CCC(C(=O)N1CCOCC1)n1c(C(=O)OC)cc2occc21 (centres undefined) | 10 µM (inconclusive) |
| Cc1ccccc1C(=O)NC(NCc1ccco1)C(Cl)(Cl)Cl (centres undefined) | 0.0398 µM (inconclusive) |
| CCCCCCCCCCCCCCSCC(=O)O [TETRADECYLTHIOACETIC ACID] | 39.8 µM (inconclusive) |
| COC(=O)[C@@]1(Cc2ccc(F)cc2)[C@H]2c3cc(C(=O)N(C)C)n(Cc4ccc(S(C)(=O)=O)cc4)c3C[C@H]2CN1C(=O)c1ccccc1 | 15.8 µM (inconclusive) |
| Clc1ccc(SCc2cc(-c3ccccc3)no2)cc1 | 4.47 µM (inconclusive) |
| CSC(=N)N/N=C/c1ccc([N+](=O)[O-])cc1 | 10 µM (inconclusive) |
| O=C(OCc1ccccc1)/C(=C/c1ccc(Cl)cc1)NC(=O)c1ccccc1Cl | 1.58 µM (inconclusive) |
| CCOC(=O)c1ccc(Nc2nc(C(=O)OCC)nc3ccccc23)cc1 | 3.55 µM (inconclusive) |
| CN(C)C(=O)CSC1c2ccccc2C(=O)N1c1ccccc1 (centres undefined) | 35.5 µM (inconclusive) |
| Cc1ccc2ccccc2c1CSc1nc(N)nc2c1ncn2CC(C)C | 7.94 µM (inconclusive) |
| CCN(CC)C(=O)c1sc2[nH]c(=S)n(-c3ccccc3)c(=O)c2c1C | 8.91 µM (inconclusive) |
| COc1ncc2nc(-c3ccc(Cl)cc3)c(=O)n(C[C@H]3CCCO3)c2n1 | 25.1 µM (inconclusive) |
| CCCC1(C(=O)OC)C=C2C(=C(C(C)C)C(=O)C2C)CN1 (centres undefined) | 20 µM (inconclusive) |

Target: Cytochrome P450 2C19 (Homo sapiens, UniProt P33261)
Sequence (P33261 whole entry): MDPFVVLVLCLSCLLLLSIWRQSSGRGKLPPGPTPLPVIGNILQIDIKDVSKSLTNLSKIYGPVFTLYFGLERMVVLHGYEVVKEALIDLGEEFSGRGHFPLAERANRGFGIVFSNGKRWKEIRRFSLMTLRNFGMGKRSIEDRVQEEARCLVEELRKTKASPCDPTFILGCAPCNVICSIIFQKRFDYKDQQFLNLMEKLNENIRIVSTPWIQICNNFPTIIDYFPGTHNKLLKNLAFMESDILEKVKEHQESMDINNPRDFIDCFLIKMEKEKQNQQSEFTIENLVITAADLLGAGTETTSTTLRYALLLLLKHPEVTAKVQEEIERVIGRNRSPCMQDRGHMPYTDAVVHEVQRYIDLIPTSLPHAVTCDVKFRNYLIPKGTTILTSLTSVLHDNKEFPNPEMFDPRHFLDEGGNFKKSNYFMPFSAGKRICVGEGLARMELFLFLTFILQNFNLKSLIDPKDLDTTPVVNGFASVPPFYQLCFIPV
Test: Cytochrome panel assay with activity outcomes. Panel member name: p450-cyp2c19 Compounds with AC50 equal or less than 10 uM are considered active
Format: functional
Conditions: not given

| SMILES | AC50 |
| --- | --- |
| CCC(=O)Nc1ccc(NC(=O)CSc2nnnn2-c2cccnc2)cc1C | inconclusive |
| CO[C@@H]1COC(=O)[C@@H](CCSC)NC(=O)C/C=C\[C@@H](C)COC(=O)[C@H](C)NC(=O)C/C=C\[C@H]1C | inconclusive |
| Cn1c(=O)c2c(nc(N/N=C\c3ccccc3C(=O)O)n2C)n(C)c1=O | inconclusive |
| CCN(CC)C(=O)c1sc2[nH]c(=S)n(-c3ccccc3)c(=O)c2c1C | inconclusive |

Same assay, conditions: read-out: AC50

| SMILES | AC50 |
| --- | --- |
| COc1ccc2[nH]cc(CCNc3cc(-c4ccc(C(=O)N(C)C)cc4)ncn3)c2c1 | 39.8 µM (inconclusive) |
| CCN1CCN(c2nc(-c3ccccn3)nc3ccccc23)CC1 | 39.8 µM (inconclusive) |
| N[C@@H](Cn1cc(I)c(=O)n(Cc2ccc(C(=O)O)cc2)c1=O)C(=O)O | 39.8 µM (inconclusive) |
| CC(C)c1ccccc1[S+]([O-])c1ccccc1C(C)(C)O (centres undefined) | 3.16 µM (inconclusive) |
| C=C(C)[C@H]1CC=C(C)/C(=N/NC(=O)CNc2ccccc2OC)C1 | 11.2 µM (inconclusive) |
| O=C(OCc1ccccc1)/C(=C/c1ccc(Cl)cc1)NC(=O)c1ccccc1Cl | 0.316 µM (inconclusive) |
| COCCNc1ccnc(-c2ccccc2C)n1 | 15.8 µM (inconclusive) |
| Cc1cccc(-c2noc(-c3cc4ccccc4oc3=O)n2)c1 | 0.562 µM (inconclusive) |
